PMC9404711 (Antibiotics, 2022)
Converted amounts (≈) assume the structure as drawn. Like-named read-outs stand apart in the source and are kept apart here. Positions of bridges follow the written chain, without caps; N, C: chain ends. Non-standard residues stand in square brackets, D forms with d. Residues, ends and D or L forms follow the SMILES beside them. *: point of attachment. X1 = CC[C@H](C)CCCCC(=O)*; Dab = NCC[C@H](N)C(=O)O; Butyryl = CCCC(=O)*

How the values were obtained:
[1] = tested on: P. aeruginosa (ATCC 27853); type: cell-based, Pseudomonas aeruginosa
Description: (§1) The following bacteria were grown in cation-adjusted Muller-Hinton broth at 37 °C with shaking: A. baumannii (ATCC 19606), E. coli (ATCC 25922), K. pneumoniae (ATCC 13883), P. aeruginosa (ATCC 27853), and S. aureus (ATCC 29213).
(§2) The MIC experiments were performed in triplicate, as described in Jensen et al.. Briefly, all peptide stock solutions were prepared by dissolving each peptide in Milli-Q water to obtain a concentration of 10 mg/mL. A bacterial concentration of 10^6 CFU/mL was obtained through the dilution of an overnight culture (MHB-II medium). When the overnight culture was prepared, the OD was measured using a spectrophotometer and when an OD value between 0.2 and 0.4 was obtained, the culture was diluted to OD = 0.002. The MIC determination was carried out in 96-well polypropylene microtitre plates. […] A final bacterial inoculum of 5 × 10^5 CFU/mL per well was obtained by adding 50 μL bacterial suspension to the microtiter plates. The plates were incubated at 37 °C for 18–24 h. To verify the CFU, 10 μL of bacteria suspension was transferred to 990 μL 0.9 % saline solution, from which a 10-fold dilution was carried out. Then, 100 μL of the dilution was plated on an LB plate and left for bacterial growth overnight at 37 °C. Colistin and vancomycin were used as the positive controls.

E. coli (ATCC 25922) = type: cell-based, Escherichia coli
Description: as §1, §2

[2] = tested on: K. pneumoniae (ATCC 13883); type: cell-based, Klebsiella pneumoniae
Description: as §1, §2

[3] = tested on: A. baumannii (ATCC 19606); type: cell-based, Acinetobacter baumannii
Description: as §1, §2

S. aureus (ATCC 29213) = test: MIC determination, broth microdilution; type: cell-based, Staphylococcus aureus; conditions: for MIC SA: S. aureus ATCC 29213, MHB-II, 37 °C, 18–24 h, triplicate
Description: as §1, §2

human erythrocytes = conditions: 150 μM peptide; 0.5% (v/v) red blood cell suspension in PBS, 1 h at 37 °C, absorbance 414 nm; melittin positive control, PBS negative control; three wells
Description: PBS served as the negative control and 5 μM melittin served as the positive control. All melittin solutions were prepared in Protein LoBind Eppendorf tubes to prevent the adsorption of melittin to the inner surface of the tubes.
Preparation of peptide solutions and melittin: A 5 μM melittin solution in PBS was prepared the day before the hemolysis experiment. First, 150 μL of this solution was transferred to each of the positive control wells and stored in the fume hood to coat the wells. On the day of the experiment, the melittin solution was discarded and the wells were washed with 3 × PBS. A 2.5 μM melittin solution in PBS was prepared and 75 μL was transferred to the wells. PBS (150 μL) was used as the negative control. A solution of each peptide was prepared by dissolving the peptide in 0.5 mL PBS to obtain a concentration of 300 μM. Each peptide solution (150 μL) was transferred to the wells in three wells each in row A, and the plate was diluted down.
Preparation of the red blood cell suspension: 1 mL of type O- whole blood in citrate was transferred to a cryotube. The whole blood was washed with 3 × PBS; adding 3, 3, and 4 mL of PBS, respectively. In between, the blood was centrifuged for 8 min (3000, 3000, and 4000 rpm, respectively) and the supernatant was removed after each centrifugation. A 0.5% (v/v) blood suspension was prepared by adding 40 μL of the washed blood cells to 8 mL of PBS. Then, 75 μL of the red blood cell suspension was transferred to each well and mixed gently. The plate was sealed and incubated for 1 h at 37 °C. After incubation, the plate was centrifuged at 4000 rpm for 10 min. Afterwards, 60 μL of the supernatant from each well was quickly transferred to an ELISA plate.
The absorbance was determined at 414 nm, and Equation (1) below was used to calculate the hemolytic activity of the peptides.

[4] = Hydrophobicity by analytical RP-HPLC (%B at elution); type: physicochemical; conditions: chromatographic, analytical reversed-phase HPLC, Waters Symmetry C18 5 μm 4.6 × 250 mm; A: H2O + 0.1% TFA, B: 90:10 ACN-H2O + 0.1% TFA
Description: Peptide purity was determined as described previously by analytical RP-HPLC using a Waters 717 plus Autosampler, In-line Degasser AF, 600 Controller, and 2996 Photodiode Array Detector; the column used was a Waters Symmetry C18 column (5 μm, 4.6 mm × 250 mm, Milford, MA, USA). An aqueous acetonitrile (ACN) gradient with 0.1% TFA added (mixing eluent A: H2O + 0.1% TFA and eluent B: 90:10 ACN-H2O + 0.1% TFA) was employed using milli-Q water. Preparative RP-HPLC was performed by using a Waters XSelect Peptide CSH C18 OBDTM column (5 μm, 19 mm × 250 mm, Milford, MA, USA) with the same eluents as for analytical HPLC.
*Hydrophobicity as indicated by the percentage of mobile phase B (%B) at the peak elution time on analytical

[5] = P. aeruginosa ATCC 27853, MHB-II, inoculum 5 × 10^5 CFU/mL, 37 °C, 18–24 h, triplicate
[6] = E. coli ATCC 25922, MHB-II, inoculum 5 × 10^5 CFU/mL, 37 °C, 18–24 h, triplicate
[7] = K. pneumoniae ATCC 13883, MHB-II, inoculum 5 × 10^5 CFU/mL, 37 °C, 18–24 h, triplicate
[8] = A. baumannii ATCC 19606, MHB-II, inoculum 5 × 10^5 CFU/mL, 37 °C, 18–24 h, triplicate
[9] = value in brackets, P. aeruginosa ATCC 27853, MHB-II, 37 °C, 18–24 h, triplicate
[10] = value in brackets, E. coli ATCC 25922, MHB-II, 37 °C, 18–24 h, triplicate
[11] = value in brackets, K. pneumoniae ATCC 13883, MHB-II, 37 °C, 18–24 h, triplicate
[12] = value in brackets, A. baumannii ATCC 19606, MHB-II, 37 °C, 18–24 h, triplicate

SMILES	MIC PA ([1]; ATCC 27853)	MIC PA [1, 5]	MIC EC (E. coli (ATCC 25922); ATCC 25922)	MIC EC (E. coli (ATCC 25922); [6])	MIC KP ([2]; ATCC 13883)	MIC KP [2, 7]	MIC AB [3, 8]	MIC AB ([3]; ATCC 19606)	MIC SA (S. aureus (ATCC 29213); inoculum 5 × 10^5 CFU/mL)	MIC (S. aureus (ATCC 29213); Staphylococcus aureus, ATCC29213, read-out: MIC SA)	MIC PA [1, 9]	% hemolysis of human erythrocytes (human erythrocytes)	MIC EC (E. coli (ATCC 25922); [10])	MIC KP [2, 11]	MIC AB [3, 12]	MIC SA (S. aureus (ATCC 29213); value in brackets)	%B (hydrophobicity: percentage of mobile phase B at the peak elution time) [4]
CC[C@H](C)CCCCC(=O)N[C@@H](CCN)C(=O)N[C@H](C(=O)N[C@@H](CCN)C(=O)N[C@H]1CCNC(=O)[C@H]([C@@H](C)O)NC(=O)[C@H](CCN)NC(=O)[C@H](CCN)NC(=O)[C@H](CC(C)C)NC(=O)[C@@H](CC(C)C)NC(=O)[C@H](CCN)NC1=O)[C@@H](C)O [Colistin, reference compound] (X1-[Dab]T[Dab][Dab][Dab][dL]L[Dab][Dab]T; lactam 4-C (inferred); N-terminus assumed)	0.4 µM	0.5 µg/mL	0.2 µM	0.25 µg/mL	0.4 µM	0.5 µg/mL	0.25 µg/mL	0.2 µM	–	–	–	–	–	–	–	–	–
CN[C@H](CC(C)C)C(=O)N[C@H]1C(=O)N[C@@H](CC(N)=O)C(=O)N[C@H]2C(=O)N[C@H]3C(=O)N[C@H](C(=O)N[C@H](C(=O)O)c4cc(O)cc(O)c4-c4cc3ccc4O)[C@H](O)c3ccc(c(Cl)c3)Oc3cc2cc(c3O[C@@H]2O[C@H](CO)[C@@H](O)[C@H](O)[C@H]2O[C@H]2C[C@](C)(N)[C@H](O)[C@H](C)O2)Oc2ccc(cc2Cl)[C@H]1O [Vancomycin, reference compound]	–	–	–	–	–	–	–	–	0.5 µg/mL	0.35 µM (≈ 0.507 µg/mL)	–	–	–	–	–	–	–
CCCC(=O)N[C@H](CCCCN)C(=O)N[C@H](CCCCN)C(=O)N[C@H](CC(C)C)C(=O)N[C@H](Cc1ccccc1)C(=O)N[C@H](CCCCN)C(=O)N[C@H](CCCCN)C(=O)N[C@@H](C(=O)N[C@H](CC(C)C)C(=O)N[C@H](CCCNC(=N)N)C(=O)N[C@H](Cc1ccc(O)cc1)C(=O)N[C@H](CC(C)C)C(N)=O)[C@H](C)CC [compound 1] (Butyryl-[dK][dK][dL][dF][dK][dK][dI][dL][dR][dY][dL]-NH2)	–	32 µg/mL	–	2 µg/mL	–	4 µg/mL	2 µg/mL	–	64 µg/mL	–	21.1 µM	100%	1.3 µM	2.6 µM	1.3 µM	42.1 µM	–
CCCCCCCCCCCC(=O)N[C@H](CCCCN)C(=O)N[C@H](CCCCN)C(=O)N[C@H](CC(C)C)C(=O)N[C@H](Cc1ccccc1)C(=O)N[C@H](CCCCN)C(=O)N[C@H](CCCCN)C(=O)N[C@@H](C(=O)N[C@H](CC(C)C)C(=O)N1CCCC[C@H](C(N)=O)NC(=O)[C@@H](Cc2ccc(O)cc2)NC(=O)[C@@H](CCCNC(=N)N)NC(=O)C1)[C@H](C)CC [compound 11]	–	4 µg/mL	–	4 µg/mL	–	8 µg/mL	4 µg/mL	–	4 µg/mL	–	2.3 µM	–	2.3 µM	4.6 µM	2.3 µM	2.3 µM	66.2 %B
CCCCCCCCCCCCCC(=O)N[C@H](CCCCN)C(=O)N[C@H](CCCCN)C(=O)N[C@H](CC(C)C)C(=O)N[C@H](Cc1ccccc1)C(=O)N[C@H](CCCCN)C(=O)N[C@H](CCCCN)C(=O)N[C@@H](C(=O)N[C@H](CC(C)C)C(=O)N1CCCC[C@H](C(N)=O)NC(=O)[C@@H](Cc2ccc(O)cc2)NC(=O)[C@@H](CCCNC(=N)N)NC(=O)C1)[C@H](C)CC [compound 12]	–	16 µg/mL	–	8 µg/mL	–	4 µg/mL	16 µg/mL	–	8 µg/mL	–	9.3 µM	–	4.6 µM	2.3 µM	9.3 µM	4.6 µM	70.0 %B
CCCCCCCCCCCC(=O)N[C@H](CCCCN)C(=O)N[C@H](CCCCN)C(=O)N[C@H](CC(C)C)C(=O)N[C@H](Cc1ccccc1)C(=O)N[C@H](CCCCN)C(=O)N[C@H](CCCCN)C(=O)N[C@@H](C(=O)N1CCCC[C@H](C(N)=O)NC(=O)[C@@H](Cc2ccc(O)cc2)NC(=O)[C@@H](CCCNC(=N)N)NC(=O)[C@@H](CC(C)C)NC(=O)C1)[C@H](C)CC [compound 14]	–	4 µg/mL	–	4 µg/mL	–	16 µg/mL	4 µg/mL	–	4 µg/mL	–	2.4 µM	–	2.4 µM	9.5 µM	2.4 µM	2.4 µM	65.1 %B
CCCCCCCCCCCC(=O)N[C@H](CCCCN)C(=O)N[C@H](CCCCN)C(=O)N[C@H](CC(C)C)C(=O)N[C@H](Cc1ccccc1)C(=O)N[C@H](CCCCN)C(=O)N[C@H](CCCCN)C(=O)N1CCCC[C@H](C(N)=O)NC(=O)[C@@H](Cc2ccc(O)cc2)NC(=O)[C@@H](CCCNC(=N)N)NC(=O)[C@@H](CC(C)C)NC(=O)[C@@H]([C@H](C)CC)NC(=O)C1 [compound 17]	–	8 µg/mL	–	8 µg/mL	–	–	4 µg/mL	–	4 µg/mL	–	4.8 µM	–	4.7 µM	–	2.4 µM	2.4 µM	65.5 %B
CCCCCCCCCCCCCC(=O)N[C@H](CCCCN)C(=O)N[C@H](CCCCN)C(=O)N[C@H](CC(C)C)C(=O)N[C@H](Cc1ccccc1)C(=O)N[C@H](CCCCN)C(=O)N[C@H](CCCCN)C(=O)N1CCCC[C@H](C(N)=O)NC(=O)[C@@H](Cc2ccc(O)cc2)NC(=O)[C@@H](CCCNC(=N)N)NC(=O)[C@@H](CC(C)C)NC(=O)[C@@H]([C@H](C)CC)NC(=O)C1 [compound 18]	–	16 µg/mL	–	8 µg/mL	–	32 µg/mL	4 µg/mL	–	4 µg/mL	–	9.3 µM	–	4.6 µM	18.7 µM	2.3 µM	2.3 µM	78.5 %B
